In ChEMBL document CHEMBL1132846, “Synthesis and biological evaluation of highly potent analogues of epothilones B and D” (Bioorg Med Chem Lett, 2000):

Key:
KB 3-1 = assay: Concentration required to inhibit the growth of paclitaxel-sensitive human epidermoid carcinoma cells KB-31 by 50 percent (72 hr exposure); format: functional, cell-based; conditions: KB 3-1, 72 h
Sus scrofa [1] = organism: Sus scrofa; assay: Induction of polymerization of porcine brain-derived microtubule protein by 2 uM epothilone B; format: functional
KB = assay: Concentration required to inhibit the growth of paclitaxel-resistant human epidermoid carcinoma cells KB-8511 by 50 percent (72 hr exposure); format: functional, cell-based
Sus scrofa [2] = organism: Sus scrofa; assay: Concentrations required to induce 50 percent polymerization of porcine brain-derived micro-tubule protein; format: functional

SMILES | IC50 (KB 3-1) [nM] | Tubulin polymerization (Sus scrofa [1]) [%] | IC50 (KB) [nM] | EC50 (Sus scrofa [2]) [nM]
C[C@H]1CCC[C@@]2(C)O[C@H]2C[C@@H](c2ccc3cccnc3c2)OC(=O)C[C@H](O)C(C)(C)C(=O)[C@H](C)[C@H]1O | 0.11 | 78 | 0.1 | –
Cc1nc2cc([C@@H]3C[C@@H]4O[C@]4(C)CCC[C@H](C)[C@H](O)[C@@H](C)C(=O)C(C)(C)[C@@H](O)CC(=O)O3)ccc2n1C | 0.14 | 99 | 0.38 | –
C/C1=C/C[C@@H](c2ccc3cccnc3c2)OC(=O)C[C@H](O)C(C)(C)C(=O)[C@H](C)[C@@H](O)[C@@H](C)CCC1 | 0.59 | 90 | 0.38 | –
C/C1=C/C[C@@H](c2ccc3sc(C)nc3c2)OC(=O)C[C@H](O)C(C)(C)C(=O)[C@H](C)[C@@H](O)[C@@H](C)CCC1 | 0.45 | 76 | 0.23 | 930
Cc1nc2cc([C@@H]3C[C@@H]4O[C@]4(C)CCC[C@H](C)[C@H](O)[C@@H](C)C(=O)C(C)(C)[C@@H](O)CC(=O)O3)ccc2s1 | 0.13 | 83 | 0.09 | –
C/C1=C/C[C@@H](c2ccc3c(c2)ncn3C)OC(=O)C[C@H](O)C(C)(C)C(=O)[C@H](C)[C@@H](O)[C@@H](C)CCC1 | 0.46 | 86 | 0.91 | –
C/C(=C\c1ccccn1)[C@@H]1C[C@@H]2O[C@]2(C)CCC[C@H](C)[C@H](O)[C@@H](C)C(=O)C(C)(C)[C@@H](O)CC(=O)O1 | 0.3 | – | 0.3 | –
C/C1=C/C[C@@H](c2ccc3c(c2)nc(C)n3C)OC(=O)C[C@H](O)C(C)(C)C(=O)[C@H](C)[C@@H](O)[C@@H](C)CCC1 | 0.21 | 94 | 0.73 | –
C[C@H]1CCC[C@@]2(C)O[C@H]2C[C@@H](c2ccc3c(c2)ncn3C)OC(=O)C[C@H](O)C(C)(C)C(=O)[C@H](C)[C@H]1O | 0.13 | 97 | 0.46 | –
C/C(=C\c1csc(C)n1)[C@@H]1C[C@@H]2O[C@@H]2CCC[C@H](C)[C@H](O)[C@@H](C)C(=O)C(C)(C)[C@@H](O)CC(=O)O1 [EPOTHILONE A] | 2.15 | 69 | 1.91 | 1120
C/C1=C/C[C@@H](/C(C)=C/c2csc(C)n2)OC(=O)C[C@H](O)C(C)(C)C(=O)[C@H](C)[C@@H](O)[C@@H](C)CCC1 [EPOTHILONE D] | 2.7 | 83 | 1.44 | 880
CC(=O)O[C@H]1C(=O)[C@@]2(C)[C@H]([C@H](OC(=O)c3ccccc3)[C@]3(O)C[C@H](OC(=O)[C@H](O)[C@@H](NC(=O)c4ccccc4)c4ccccc4)C(C)=C1C3(C)C)[C@]1(OC(C)=O)CO[C@@H]1C[C@@H]2O [PACLITAXEL] | 2.92 | 49 | 626 | –
C/C(=C\c1csc(C)n1)[C@@H]1C[C@@H]2O[C@]2(C)CCC[C@H](C)[C@H](O)[C@@H](C)C(=O)C(C)(C)[C@@H](O)CC(=O)O1 [PATUPILONE] | 0.19 | 90 | 0.18 | 670
